Measured values: ChEMBL document CHEMBL3817770, “Design and synthesis of 5-aminolaevulinic acid/3-hydroxypyridinone conjugates for photodynamic therapy: enhancement of protoporphyrin IX production and photo-toxicity in tumor cells” (Medchemcomm, 2016)
Calls of active or inactive are those of the source. No cut-off for these calls is given here.

How the values were obtained:
[1] = system: A549; assay: Dark toxicity in human A549 cells at 200 uM after 4 hrs by MTT assay; assay type: cell-based; details: a549, 4 h
[2] = system: A549; assay: Phototoxicity in human A549 cells assessed as cell survival at 200 uM incubated for 4 hrs followed by irradiation with blue light for 5 mins by MTT assay; assay type: functional
[3] = system: MCF7; assay: Phototoxicity in human MCF7 cells assessed as cell survival at 100 uM incubated for 4 hrs followed by irradiation with blue light for 5 mins by MTT assay; assay type: functional
[4] = system: LNCaP; assay: Dark toxicity in human LNCAP cells at 200 uM after 4 hrs by MTT assay; assay type: cell-based
[5] = Increase in protoporphyrin 9 levels in human BPH1 cells at 100 uM after 24 hrs by fluorescence spectrometer plate reader method relative to ALA; assay type: ADME, cell-based; details: bph-1, 24 h
[6] = system: LNCaP; assay: Phototoxicity in human LNCAP cells assessed as cell survival at 200 uM incubated for 4 hrs followed by irradiation with blue light for 5 mins by MTT assay; assay type: functional
[7] = system: KB; assay: Phototoxicity in human KB cells assessed as cell survival at 200 uM incubated for 4 hrs followed by irradiation with blue light for 5 mins by MTT assay; assay type: functional
[8] = Phototoxicity in human BPH1 cells assessed as cell survival at 200 uM incubated for 4 hrs followed by irradiation with blue light for 5 mins by MTT assay; assay type: cell-based, BPH-1; details: bph-1, 4 h, 200 µM
[9] = system: A549; assay: Increase in protoporphyrin 9 levels in human A549 cells at 200 uM after 3 to 24 hrs by fluorescence spectrometer plate reader method; assay type: functional, cell-based
[10] = system: A549; assay: Increase in protoporphyrin 9 levels in human A549 cells at 100 uM after 24 hrs by fluorescence spectrometer plate reader method relative to ALA; assay type: functional
[11] = Dark toxicity in human BPH1 cells at 200 uM after 4 hrs by MTT assay; assay type: cell-based; details: bph-1, 4 h
[12] = system: A549; assay: Phototoxicity in human A549 cells assessed as cell survival at 100 uM incubated for 4 hrs followed by irradiation with blue light for 5 mins by MTT assay; assay type: functional
[13] = system: LNCaP; assay: Increase in protoporphyrin 9 levels in human LNCAP cells at 100 uM after 24 hrs by fluorescence spectrometer plate reader method relative to ALA; assay type: functional
[14] = system: KB; assay: Increase in protoporphyrin 9 levels in human KB cells at 100 uM after 24 hrs by fluorescence spectrometer plate reader method relative to ALA; assay type: functional
[15] = system: MCF7; assay: Dark toxicity in human MCF7 cells at 200 uM after 4 hrs by MTT assay; assay type: cell-based; details: mcf7, 4 h
[16] = system: LNCaP; assay: Increase in protoporphyrin 9 levels in human LNCAP cells at 200 uM after 3 to 24 hrs by fluorescence spectrometer plate reader method; assay type: functional, cell-based
[17] = system: LNCaP; assay: Phototoxicity in human LNCAP cells assessed as cell survival at 100 uM incubated for 4 hrs followed by irradiation with blue light for 5 mins by MTT assay; assay type: functional
[18] = system: KB; assay: Increase in protoporphyrin 9 levels in human KB cells at 200 uM after 3 to 24 hrs by fluorescence spectrometer plate reader method; assay type: functional, cell-based
[19] = Increase in protoporphyrin 9 levels in human BPH1 cells at 200 uM after 3 to 24 hrs by fluorescence spectrometer plate reader method; assay type: ADME, cell-based; details: bph-1, 200 µM

CCCCCCn1ccc(=O)c(O)c1C(=O)N[C@@H](CC(C)C)C(=O)NCC(=O)CCC(=O)OC
Activity [1]: Non-toxic
Activity [2]: inactive
Activity [3]: inactive
Activity [4]: Non-toxic
Activity [5]: Non-toxic
Activity [6]: inactive
Activity [7]: inactive
Activity [8]: Non-toxic
Activity [9]: inactive
Activity [10]: inactive
Activity [11]: Non-toxic
Activity [12]: inactive
Activity [13]: inactive
Activity [14]: inactive
Activity [15]: Non-toxic
Activity [16]: inactive
Activity [17]: inactive
Activity [18]: inactive
Activity [19]: Non-toxic

CCn1ccc(=O)c(O)c1C(=O)N[C@@H](CC(C)C)C(=O)NCC(=O)CCC(=O)OC
Activity [1]: Non-toxic
Activity [2]: inactive
Activity [3]: inactive
Activity [4]: Non-toxic
Activity [5]: Non-toxic
Activity [6]: inactive
Activity [7]: inactive
Activity [8]: Non-toxic
Activity [9]: inactive
Activity [10]: inactive
Activity [11]: Non-toxic
Activity [12]: inactive
Activity [13]: inactive
Activity [14]: inactive
Activity [15]: Non-toxic
Activity [16]: inactive
Activity [17]: inactive
Activity [18]: inactive
Activity [19]: Non-toxic

COCCn1ccc(=O)c(O)c1C(=O)N[C@@H](Cc1ccccc1)C(=O)NCC(=O)CCC(=O)OC
Activity [1]: Non-toxic
Activity [2]: inactive
Activity [3]: inactive
Activity [4]: Non-toxic
Activity [5]: Non-toxic
Activity [6]: inactive
Activity [7]: inactive
Activity [8]: Non-toxic
Activity [9]: inactive
Activity [10]: inactive
Activity [11]: Non-toxic
Activity [12]: inactive
Activity [13]: inactive
Activity [14]: inactive
Activity [15]: Non-toxic
Activity [16]: inactive
Activity [17]: inactive
Activity [18]: inactive
Activity [19]: Non-toxic

CCCCCCn1ccc(=O)c(O)c1C(=O)N[C@@H](Cc1ccccc1)C(=O)NCC(=O)CCC(=O)OC
Activity [1]: Non-toxic
Activity [2]: inactive
Activity [3]: inactive
Activity [4]: Non-toxic
Activity [5]: Non-toxic
Activity [6]: inactive
Activity [7]: inactive
Activity [8]: Non-toxic
Activity [9]: inactive
Activity [10]: inactive
Activity [11]: Non-toxic
Activity [12]: inactive
Activity [13]: inactive
Activity [14]: inactive
Activity [15]: Non-toxic
Activity [16]: inactive
Activity [17]: inactive
Activity [18]: inactive
Activity [19]: Non-toxic

COCCn1ccc(=O)c(O)c1C(=O)N[C@@H](CC(C)C)C(=O)NCC(=O)CCC(=O)OC
Activity [1]: Non-toxic
Activity [2]: inactive
Activity [3]: inactive
Activity [4]: Non-toxic
Activity [5]: Non-toxic
Activity [6]: inactive
Activity [7]: inactive
Activity [8]: Non-toxic
Activity [9]: inactive
Activity [10]: inactive
Activity [11]: Non-toxic
Activity [12]: inactive
Activity [13]: inactive
Activity [14]: inactive
Activity [15]: Non-toxic
Activity [16]: inactive
Activity [17]: inactive
Activity [18]: inactive
Activity [19]: Non-toxic

CCCCn1ccc(=O)c(O)c1C(=O)N[C@@H](CC(C)C)C(=O)NCC(=O)CCC(=O)OC
Activity [1]: Non-toxic
Activity [2]: inactive
Activity [3]: inactive
Activity [4]: Non-toxic
Activity [5]: Non-toxic
Activity [6]: inactive
Activity [7]: inactive
Activity [8]: Non-toxic
Activity [9]: inactive
Activity [10]: inactive
Activity [11]: Non-toxic
Activity [12]: inactive
Activity [13]: inactive
Activity [14]: inactive
Activity [15]: Non-toxic
Activity [16]: inactive
Activity [17]: inactive
Activity [18]: inactive
Activity [19]: Non-toxic

COC(=O)CCC(=O)CNC(=O)[C@H](CC(C)C)NC(=O)c1c(O)c(=O)ccn1C
Activity [1]: Non-toxic
Activity [2]: inactive
Activity [3]: inactive
Activity [4]: Non-toxic
Activity [5]: Non-toxic
Activity [6]: inactive
Activity [7]: inactive
Activity [8]: Non-toxic
Activity [9]: inactive
Activity [10]: inactive
Activity [11]: Non-toxic
Activity [12]: inactive
Activity [13]: inactive
Activity [14]: inactive
Activity [15]: Non-toxic
Activity [16]: inactive
Activity [17]: inactive
Activity [18]: inactive
Activity [19]: Non-toxic

CCCCn1ccc(=O)c(O)c1C(=O)N[C@@H](Cc1ccccc1)C(=O)NCC(=O)CCC(=O)OC
Activity [1]: Non-toxic
Activity [2]: inactive
Activity [3]: inactive
Activity [4]: Non-toxic
Activity [5]: Non-toxic
Activity [6]: inactive
Activity [7]: inactive
Activity [8]: Non-toxic
Activity [9]: inactive
Activity [10]: inactive
Activity [11]: Non-toxic
Activity [12]: inactive
Activity [13]: inactive
Activity [14]: inactive
Activity [15]: Non-toxic
Activity [16]: inactive
Activity [17]: inactive
Activity [18]: inactive
Activity [19]: Non-toxic

CCn1ccc(=O)c(O)c1C(=O)N[C@@H](Cc1ccccc1)C(=O)NCC(=O)CCC(=O)OC
Activity [1]: Non-toxic
Activity [2]: inactive
Activity [3]: inactive
Activity [4]: Non-toxic
Activity [5]: Non-toxic
Activity [6]: inactive
Activity [7]: inactive
Activity [8]: Non-toxic
Activity [9]: inactive
Activity [10]: inactive
Activity [11]: Non-toxic
Activity [12]: inactive
Activity [13]: inactive
Activity [14]: inactive
Activity [15]: Non-toxic
Activity [16]: inactive
Activity [17]: inactive
Activity [18]: inactive
Activity [19]: Non-toxic
